Columns and labels:
Rat plasma stability = format: in vitro ADME; settings: over 4 h, 50 μM, 37 °C
Description: Two- to three-month-old healthy male Wistar rats (with an average weight of 385 g) were obtained from the Graduation Program in Pharmacology and Medicinal Chemistry Bioterium (CCS/UFRJ) (Rio de Janeiro, Brazil). The rats were fed ad libitum with Purina chow (Nuvilab, Curitiba, Brazil) and had unrestricted access to water. They were housed in a controlled environment maintained at 22 ± 2 °C, 50–70% relative humidity and a 12 h light/dark cycle. The local Animal Ethics Committee approved all experimental procedures (046/21).
A 10 mM stock solution of bixin was prepared in DMSO. Rat blood was collected with heparin and centrifuged. The plasma fraction was separated and diluted to 80% in PBS at pH 7.4. Then, 50 μL of the 80% rat plasma solution was added to a final volume of 250 μL of a KPE at pH 7.4 containing 50 μM of bixin. The bixin was incubated with rat plasma under these conditions for 0, 30, 60, 120, and 240 min with shaking in a water bath at 37 °C. […] The supernatant was collected, filtered through a 0.22 μm filter into a vial, and then analyzed by HPLC using an LC-20AD Shimadzu (Kyoto, Japan) system equipped with a 100-5C18 Kromasil (Bohus, Sweden) analytical column (4.6 mm × 250 mm, 5 μm) and an SPD M20A diode array detector Shimadzu (Kyoto, Japan) set to wavelengths of 271 nm and 457 nm. […]

[1] = Rat liver microsomal stability in the absence of cofactors (NADPH generating system); format: in vitro ADME; settings: rat liver microsomes without NADPH cofactors, 4 h, 50 μM, 37 °C
Description: A final solution of microsomes (1 mg/mL protein) in 250 μL of PBS at pH 7.4 containing 50 μM of bixin was prepared in the absence of an NADPH-regenerating metabolic cofactor system. The bixin was incubated with rat microsomes under these conditions for 0, 30, 60, 120, and 240 min with shaking in a water bath at 37 °C. The subsequent steps for protein precipitation, bixin extraction, and HPLC analysis were identical to those described for the rat plasma stability assay.

Nrf2/ARE axis = assay: Luciferase ARE reporter assay; format: cell-based; settings: RAW 264.7 transfected with ARE luciferase reporter, 0–200 μM; read-out: EC50 in activating the Nrf2/ARE axis
Description: RAW 264.7 cells (3.5 × 10^5 cells/well) were seeded into 24-well plates in FBS-free DMEM. Next day, cells were transfected with the ARE-responsive luciferase reporter kit (#60514, BPS Bioscience, San Diego, CA, USA) in Opti-MEM containing Lipofectamine 2000 and incubated for 24 h. After stimulation with different concentrations of potassium bixinate (0–200 μM), the luciferase-containing medium was collected and incubated with luciferin substrate (Dual Luciferase Assay System) (#60683-1, BPS Bioscience, San Diego, CA, USA) according to the manufacturer’s instructions. Luminescence emitted by luciferin cleavage was measured using the Varioskan LUX plate reader (ThermoFisher Scientific, Waltham, MA, USA).

[2] = Solubility tests of the potassium salt; format: physicochemical

Molecule	initial concentration retained in plasma (Rat plasma stability)	initial concentration maintained in microsomes [1]	EC50 (Nrf2/ARE axis)	aqueous solubility relative to bixin [2]
COC(=O)/C=C/C(C)=C\C=C\C(C)=C\C=C\C=C(C)\C=C\C=C(C)\C=C\C(=O)O [HBx, (2E,4E,6E,8E,10E,12E,14E,16Z,18E)-20-methoxy-4,8,13,17-tetramethyl-20-oxoicosa-2,4,6,8,10,12,14,16,18-nonaenoic acid]	~100%	~100%	–	–
potassium bixinate [KBx]	–	–	46 µM	significant increase in the aqueous solubility

Source: publication PMC12030059, “Mechanistic Advances in the Therapeutic Application of Bixin for Lung Inflammation In Vitro and In Vivo” (Pharmaceuticals, 2025)
